Test results reported in patent publication US8481691B2, “Method for selectively extracting membrane proteins using calixarenes” (Centre National de la Recherche Scientifique—CNRS, priority 2008, dated 2013).

How the values were obtained:
[1] = Aggregation state / apparent diameter of aggregates; type: physicochemical
BmrA [2] = biological target: T1, BmrA (Bacillus subtilis, UniProt O06967); assay: Solubilization of BmrA from enriched membrane fractions (centrifugation, SDS PAGE); type: biochemical, E. coli membrane fraction; settings: for Solubilization of BmrA (found in supernatant): detergent 10 mg/ml (1%), 2 mg proteins/ml, 2 hrs at 4° C., FIG. 7; for Solubilization of BmrA: FIG. 8
T1 construct: made in house; host or cells: E. coli C41 BL21(DE3), plasmid pET15b-BMRA; isolated membrane fraction
Text: The gray and black dotted lines and the black line serve as a scale of the efficacy of the molecules to be solubilized. The “no det” lines signify “without detergent”.
The experimental conditions are those of FIG. 7, with the exception of the concentrations of the butyl, heptyl and dodecyl molecules which are as indicated in the figure, for which the g/L<->M correspondence is indicated in Table 2. The “no det” lines signify “without detergent”.
The competent bacteria C41 BL21(DE3) E. coli (Escherichia coli) were transformed with the plasmid pET15b-BMRA bearing the gene coding for BmrA and placed under the control of an inducible promoter and a gene coding for the protein conferring resistance to ampicillin. A positive clone was cultured in a liquid medium at 37° C. and 200 rpm in the presence of ampicillin until a semi-exponential growth phase. The expression of BmrA is induced by addition of 1 mM of isopropyl thio β-galactoside and continued at 25° C. for 4 hrs. The bacteria were harvested by centrifugation, disrupted in a French press, and the membrane fraction was isolated by a series of centrifugation stages at low and high speeds. The protein content was evaluated by colorimetry and set at 20 mg/ml (20 mM Tris-Cl pH 8.0, […] NaCl, 300 mM sucrose) before freezing and storage in liquid nitrogen. Before use, the membrane fraction is then rapidly thawed in water and maintained at 4° C. in ice.
The solubilization is effected at 4° C.

BmrA [3] = biological target: T1, BmrA; assay: Vanadate-sensitive ATPase activity of BmrA after solubilization; type: biochemical; settings: for Effect on ATPase activity of BmrA: 1 mg/ml; for Effect on ATPase activity of BmrA / ATPase activity of BmrA with solubilization: FIG. 9; for ATPase activity of BmrA with solubilization: increasing detergent concentration; for ATPase activity of BmrA after reconstitution in liposomes: after removal of the detergents; for Loss of ATPase activity of BmrA once solubilized: relative to BmrA activity in natural membranes
Text: The solubilization tests take place as in FIG. 8 and the ATPase activity tests are described in example 11. The vertical dotted lines show the CMC of each compound. The black lozenges correspond to a test in which BmrA is solubilized with p(COOH)3—Ar4-o(C7H15) then reconstituted in lipids after removal of the detergent with biobeads (Bio-Rad) according to the procedure described in Lenoir et al..
The percentage of specific ATPase activity sensitive to vanadate (% SA or % VO4 sensitive Specific ATPase Activity) is evaluated for the following different cases: • BmrA Mb: activity of BmrA in natural membranes, • DDM sup./DDM: activity of BmrA in the DDM extract, • DDM sup./Lip.: activity of BmrA from the DDM extract and reconstituted in liposomes, • FC12 sup./FC12: activity of BmrA in the Foscholine 12 extract, • FC12 sup./Lip.: activity of BmrA from the Foscholine 12 extract and reconstituted in liposomes, • C4C7 sup./[…]: activity of BmrA in the calixarene C4C7 (in other words calix[4]arene-O-heptyloxy) extract, • C4C7 sup./Lip.: activity of BmrA from the calixarene C4C7 extract and reconstituted in liposomes.
FIG. 12 summarizes the results of an extraction successively using the calixarenes C4C3 then C4C7 (FIG. 12A) followed by purification by gel filtration chromatography (FIGS. 12B-E).
The ATPase activity is measured by evaluating the inorganic phosphate content (Pi) after 5 minutes of incubation at 37° C. The fraction of Pi produced by other ATPase activities is deducted by measuring the same activity in the presence of 1 mM of ortho vanadate which inhibits the ATPase activity of BmrA (for example as described in [10]).
The effect of the solubilization by the p(COOH)3—Ar4-o(CnH2n+1) series on the ATPase activity of BmrA was analyzed under the same conditions as in FIG. 8.
The effects of the solubilization on the activity of the BmrA protein were evaluated with various C4Cn calixarenes, in other words the p(COOH)3—Ar4-o(CnH2n+1) calixarenes, but also with the control detergents such as Foscholine 12 (FC12) and β-D-dodecyl maltopyranoside (DDM), then the extracts obtained (supernatant fractions) were dialyzed in the presence of liposomes in order to restore a membrane environment, which enables the recovery of the activity of the protein.

[4] = Critical Micellar Concentration estimated from surface tension data; type: physicochemical
Protocol: The effect of the molecules having an alkyl chain with 1 to 12 methylene groups (m, x axis in the figure) on the CMC is measured at a concentration of 10^−2 M, at pH 6.0 (solid circles) and 8.0 (open circles). Each point corresponds to the mean of three values, estimated from the data from FIG. 2.
(§1) The surfactant properties of the calixarenes of formula (I) are evaluated in a 1 ml sitting drop by means of a Kibron micro-depression instrument and using a stainless steel syringe and a Wilhelmy balance. The curves obtained are processed with the software Sigmaplot v11.
Critical Micellar Concentration (CMC) is understood to mean the concentration beyond which the concentration of the detergent molecules no longer increases since said molecules are involved in micelles (FIG. 13). […] Conversely, when the alkyl chains include more than 8 methylene groups, the resulting CMC decreases appreciably to 0.15 mM when the pH increases from 6 to 8.

[5] = Surface tension measurement of water (surfactant properties); type: physicochemical
Text: The effect of the derivatives of calix[4]arene containing alkyl chains with 1 to 12 carbon atoms on the surface tension of water was followed as a function of the concentration of said derivatives (molar M or mol/L) at pH 6.0 (not exposed) and 8.0 (exposed). The surface-active properties of DDM (β-D-dodecyl malto-pyranoside) are also shown in this figure. Each point corresponds to the mean of three values.
The effect of the molecules containing an alkyl chain having from 1 to 12 methylene groups (n, x axis in FIG. 3) on the surface tension of water was measured at a concentration of 10^−2M, at pH 6.0 (open circles) and at pH 8.0 (squares). Each point corresponds to the mean of three values.
as §1

[6] = Modulation of surfactant potential by amino acids (surface tension); type: physicochemical; settings: compound 10^−2 M, pH 8.0
Protocol: The compound p(COOH)3—Ar4-o(C7H15) is present at a concentration of 10^−2 M whereas that of the amino acids vary as indicated. The surface tension is measured at pH 8.0. The amino acids are indicated by their three-letter code: Glu=glutamic acid, Trp=tryptophan, Asn=asparagine, Gly=glycine, Ala=alanine, Ser=serine, Phe=phenylalanine, Leu=leucine, Pro=Proline, Lys=lysine, His=histidine, Arg=arginine. Each point corresponds to the mean of three values.
as §1

T1 sequence (O06967 whole entry): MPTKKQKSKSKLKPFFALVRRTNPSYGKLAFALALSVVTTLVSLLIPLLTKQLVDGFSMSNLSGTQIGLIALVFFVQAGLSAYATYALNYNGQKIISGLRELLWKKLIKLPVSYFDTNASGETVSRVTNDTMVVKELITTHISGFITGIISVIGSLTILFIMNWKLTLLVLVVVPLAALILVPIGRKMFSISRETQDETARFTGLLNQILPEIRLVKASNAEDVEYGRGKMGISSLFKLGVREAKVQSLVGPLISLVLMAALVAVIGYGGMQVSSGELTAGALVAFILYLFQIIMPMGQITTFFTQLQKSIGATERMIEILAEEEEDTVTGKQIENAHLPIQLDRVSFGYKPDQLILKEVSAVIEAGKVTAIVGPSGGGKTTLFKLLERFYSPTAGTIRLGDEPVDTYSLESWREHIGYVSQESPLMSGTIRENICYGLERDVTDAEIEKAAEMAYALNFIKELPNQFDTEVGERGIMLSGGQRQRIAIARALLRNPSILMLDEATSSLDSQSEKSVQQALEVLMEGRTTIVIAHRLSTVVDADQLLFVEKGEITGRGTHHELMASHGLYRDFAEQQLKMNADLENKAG

Compound: CCCCOc1c2cccc1Cc1cc(CC(=O)O)cc(c1O)Cc1cc(CC(=O)O)cc(c1O)Cc1cc(CC(=O)O)cc(c1O)C2 [compound 5b, 5,11,17 tris-[(carboxylato)methyl]25-mono-butyloxy 26,27,28 tris-hydroxycalix[4]arene]
- Apparent diameter (nm) ([1]; pH 2): 500 nm
- Apparent diameter (nm) ([1]; pH 6): 145 nm
- Solubilization of BmrA (found in supernatant) (BmrA [2]): increases progressively

Compound: CCCCCCCCCCCCOc1c2cccc1Cc1cc(CC(=O)O)cc(c1O)Cc1cc(CC(=O)O)cc(c1O)Cc1cc(CC(=O)O)cc(c1O)C2 [compound 5d, 5,11,17 tris-[(carboxylato)methyl]25-mono-dodecyl 26,27,28 tris-hydroxycalix[4]arene]
- Apparent diameter (nm) ([1]; pH 2): 880 nm
- Apparent diameter (nm) ([1]; pH 6): 190 nm
- Effect on ATPase activity of BmrA (BmrA [3]): does not lead to inactivation
- CMC [4]: ~0.15 mM
- Critical Micellar Concentration (CMC) [4]: 0.15 mM
- Surface tension plateau relative to initial surface tension ([5]; 10^−2 M, pH 8.0, FIG. 3): half the initial surface tension
- Surfactant properties (ability to decrease the surface tension of water) ([5]; as a function of concentration, FIG. 2): surfactant properties close to those of DDM
- Solubilization of BmrA (BmrA [2]; 1 mg/ml): rather effectively
- Solubilization of BmrA (BmrA [2]; at CMC of 0.15 mM (0.1 g/L)): no solubilization

Compound: CCCCCCOc1c2cccc1Cc1cc(CC(=O)O)cc(c1O)Cc1cc(CC(=O)O)cc(c1O)Cc1cc(CC(=O)O)cc(c1O)C2 [compound 5c]
- Apparent diameter (nm) ([1]; pH 2): 850 nm
- Apparent diameter (nm) ([1]; pH 6): 400 nm
- Solubilization of BmrA (found in supernatant) (BmrA [2]): more pronounced

Compound: CCCCCCCCCCCCOCCOCCOCCOCCOCCOCCOCCOCCO [C12E8]
- ATPase activity of BmrA with solubilization (BmrA [3]): decreases with the solubilization

Compound: COc1c2cccc1Cc1cc(CC(=O)O)cc(c1O)Cc1cc(CC(=O)O)cc(c1O)Cc1cc(CC(=O)O)cc(c1O)C2 [compound 5a, 5,11,17 tris-[(carboxylato)methyl]25-mono-methyloxy 26,27,28 tris-hydroxycalix[4]arene]
- Apparent diameter (nm) ([1]; pH 2): 950 nm
- Apparent diameter (nm) ([1]; pH 4): 340 nm
- Apparent diameter (nm) ([1]; pH 8): 270 nm
- CMC [4]: >1.5 mM
- Solubilization of BmrA (found in supernatant) (BmrA [2]): No solubilization

Compound: CCCCCCCCCCCCO[C@@H]1O[C@H](CO)[C@@H](O[C@H]2O[C@H](CO)[C@@H](O)[C@H](O)[C@H]2O)[C@H](O)[C@H]1O [DDM, n-dodecyl-β-D-maltopyranoside]
- ATPase activity of BmrA after reconstitution in liposomes (BmrA [3]; FIG. 11): recovered
- Loss of ATPase activity of BmrA once solubilized (BmrA [3]; FIG. 11): 95%
- Solubilization of BmrA (found in supernatant) (BmrA [2]): more pronounced

Compound: calix[4]arene-O-heptyloxy [C4C7]
- Effect on ATPase activity of BmrA (BmrA [3]): does not lead to inactivation
- ATPase activity of BmrA preserved (BmrA [3]; C4C3 and C4C7 used successively, FIG. 11): about 50%
- ATPase activity of BmrA fraction after gel filtration (BmrA [3]; extracted with C4C7, gel filtration in the presence of FC12, fraction a FIG. 12E): recovered active
- ATPase activity of BmrA fraction reconstituted in liposomes (BmrA [3]; extracted with C4C7, gel filtration, then liposomes, fraction b FIG. 12E): elevated ATPase activity was recovered
- CMC [4]: ~1.5 mM
- Critical Micellar Concentration (CMC) [4]: about 1.5 mM
- Solubilization of BmrA (BmrA [2]; 1 mg/ml): rather effectively
- Effect of amino acid on surface tension ([6]; alanine, phenylalanine, leucine): amplified
- Effect of amino acid on surface tension ([6]; glutamic acid or asparagine): No effect
- Effect of amino acid on surface tension ([6]; glycine): moderate effect
- Effect of amino acid on surface tension ([6]; positively charged amino acids histidine, lysine, arginine, listed as n=7): very pronounced
- Effect of amino acid on surface tension ([6]; positively charged amino acids histidine, lysine, arginine, listed as p(COOH)3—Ar4-o(C7H15)): easily increased

Compound: CCCCCCCCCCCCOP(=O)([O-])OCC[N+](C)(C)C [FC12, n-dodecylphosphocholine]
- ATPase activity of BmrA after reconstitution in liposomes (BmrA [3]; FIG. 11): recovered
- ATPase activity of BmrA with solubilization (BmrA [3]): decreases with the solubilization
- Loss of ATPase activity of BmrA once solubilized (BmrA [3]; FIG. 11): 99%
- Solubilization of BmrA (found in supernatant) (BmrA [2]): complete
